Assay results reported in patent US20050272682A1, “SiRNA targeting PI3K signal transduction pathway and siRNA-based therapy” (priority 2004, published 2005).
Entries after “also recorded” stand apart in the source; their conditions may differ.

Experiments:
Assay type in all cases: cell-based, human
[1] = test system: KM12C cells; experiment: MTT assay, KM12C cells; details: KM12C cells at 96, 120 and 144 h after transfection
Method: (§1) Cells were transfected with pik3r1, Akt1 or scrambled siRNA at a density of 2×10^5 cells/well in 12 well plates. After 24 h, adherent cells were detached by rapid trypsinization, counted in a Hausser chamber and replated into 96 well plates at a concentration of 2×10^3 cells/well. […]

[2] = test system: PI3K/Akt pathway; experiment: Western blot and immunofluorescence of Akt1, p85α and pAkt in transfected KM20 cells
Method: (§2) Cell culture transfection was carried out with siPORT™ Amine transfection agent according to the manufacturer's protocol. Three days after transfection with the siRNA duplexes, cells were harvested and protein expression was assessed by Western blot.
(§3) Western immunoblot analyses were performed as described previously (Wang, et al., 2000). Cells were lysed with TNN buffer at 4° C. for 30 min. Lysates were clarified by centrifugation (10,000×g for 30 min at 4° C.) and protein concentrations determined using the method of Bradford (1976). Briefly, total protein (100 μg) was resolved on a 10% polyacrylamide gel and transferred to Immobilon-P […] membranes. Filters were incubated overnight at 4° C. in blotting solution (Tris-buffered saline containing 5% nonfat dried milk and 0.1% Tween 20), followed by a 1-h incubation with primary antibodies. Filters were washed three times in a blocking solution and incubated with horseradish peroxidase-conjugated secondary antibodies for 1 h. After three additional washes, the immune complexes were visualized by ECL detection.
KM20 cells were seeded onto sterile glass coverslips in 60 mm dishes and cultured for 16-24 h before treatment. Cells were transfected with pik3r1 or Akt1 or scrambled (control) siRNA sequences. At 96 h posttransfection, cells were washed in PBS, fixed in cold methanol for 5 min, and washed in three changes of PBS followed by a solution of 10% normal goat serum. After washing, cells were then incubated with the primary antibody (diluted in PBS with 1.5% normal goat serum) for 60 min. […] After three final washes, the slides were viewed with a fluorescence microscope.
It is speculated that siRNA directed to PI3K/Akt pathway components would inhibit cell growth and induce apoptosis in human colorectal cancer cell lines. […] In view of evidence that Akt plays a critical role in the prosurvival properties of PI3K (Nichol son, et al., 2002), activation of Akt in pik3r1 and Akt1 siRNA treated cells was then analyzed by Western blot and immunofluorescent analysis using a phospho-specific Ser473 Akt antibody.

[3] = test system: KM20 cells; experiment: MTT assay, KM20 cells; details: KM20 cells at 96, 120 and 144 h after transfection
Method: as §1

[4] = test system: KM12C cells; experiment: Western blot of apoptosis-related proteins, KM12C cells
Method: as §2, §3

[5] = test system: KM12C cells; experiment: DNA fragmentation assay (Cell Death Detection ELISA), KM12C cells
Method: Cells were transfected with pik3r1, Akt1 or scrambled siRNA. After 48 h, adherent cells were detached by rapid trypsinization, counted in a Hausser chamber and seeded at a density of 2×10^3 cells per well in 96-well flat-bottom microtiter plates and incubated in 250 μl of growth medium for 24 h at 37° C. Media were removed and either new complete media or TRAIL (100 ng/mL) was added in a final volume of 200 μL and allowed to grow for 24 h at 37° C. After treatment, DNA fragmentation was evaluated by examination of cytoplasmic histone-associated DNA fragments (mono- and oligonucleosomes) using a Cell Death Detection ELISA^Plus kit (Roche Molecular Biochemicals) according to the manufacturer's instructions and as previously described (Wang. et al., 2002). The experiments were repeated on at least 3 separate occasions.

With “pik3r1 siRNA: siRNA to human pik3r1 (p85α) used in KM20/KM12C cells and xenografts; SEQ ID NO:24 vs. SEQ ID NO:25 (chain 1 GAAUAUACCCGCACAUCCCUU; chain 2 GGGAUGUGCGGGUAUAUUCUU; listed as RNA, chemistry not given here)” the “cell viability (MTT)” value [1] was “significantly decreased”, the “pAkt expression (immunofluorescent analysis)” value ([2]; 96 h posttransfection, compared with scrambled sequences) was “suppression” and the p85α protein levels ([2]; Western blot, 72, 96 and 120 h after transfection in Example 19) was “reduced; also recorded: decreased”. The pAkt expression levels ([2]; Western blot, phospho-Ser473 Akt antibody) was “suppressed; also recorded: decreased”, the “cell viability (MTT)” value [3] was “significantly decreased” and the Bax protein expression [4] was “increased”. The Bcl-2 protein expression [4] was “decreased”, the Bcl-xL protein expression [4] was “decreased” and the “caspase-9 activation (35 kDa large active subunit)” value [4] was “activation”. For the same substance, the “cytochrome C release” value [4] was “induced”, the “DNA fragmentation (apoptosis)” value ([5]; siRNA alone compared to scrambled sequence) was “increase; also recorded: induced” and the “TRAIL-mediated apoptosis (DNA fragmentation)” value ([5]; siRNA in combination with TRAIL 100 ng/mL) was “significant augmentation”.
